{
  "source": "paper PMC12914960",
  "about": "“Repurposing a detrimental antibody epitope as targeted therapeutics for sepsis and rheumatoid arthritis” (Military Medical Research, 2026)",
  "key": {"[1]": {"test_system": "CLP-induced serum cytokines and chemokines", "experiment": "Serum cytokines/chemokines after CLP, murine cytokine antibody arrays", "format": "in vivo, mouse", "set-up": "BLC / G-CSF / GM-CSF / IL-6 / KC / MCP-1 / MIP-2 / MIP-1 gama / PF-4 / sTNF-RI: unit not given here", "details": "for BLC / G-CSF / GM-CSF / IL-6 / KC / MCP-1 / MIP-1 gama / MIP-2 / PF-4 / sTNF-RI: serum 24 h, individual values", "method": "Experimental sepsis was induced in BALB/c mice via CLP as previously described. […] The animals were randomly assigned to the control vehicle (n = 10 or n = 20) or experimental groups (n = 10 or n = 20). P2 (5.0 mg/kg), P2-1 (0.1 mg/kg or 1.0 mg/kg), or tetranectin N-terminal deletion mutant (ΔTN) (1.0 mg/kg) were administered intraperitoneally (i.p.) at the indicated time points, and survival rates were monitored. To elucidate P2-1’s protective mechanisms, a separate group of BALB/c mice (n = 4) underwent CLP and received P2-1 (1.0 mg/kg) at 2 h and 20 h post-CLP. At 24 h post-CLP, the animals were euthanized, blood was collected, and serum cytokines and chemokines were measured via murine cytokine antibody arrays as previously described. More details are presented in Additional file 1: Methods.\nThe levels of cytokines and chemokines in mouse serum and joint tissue lysates, or human PBMC culture supernatants, were determined via murine or human cytokine antibody arrays (e.g., Cat. #AAM-CYM-3–8 or Cat. #AAH-CYT-3–8, RayBiotech Inc., Norcross, GA, USA) as previously described. For the sepsis model, blood samples were collected from the mice (n = 4) at 24 h post-CLP. For the CAIA model, soft tissues from the hindpaw and ankle joints were carefully harvested from normal (n = 2) and CAIA (n = 4) mice using a previously established protocol. Briefly, 0.5 g of fresh soft tissue was cut into 3 mm pieces and mixed with 400 µl of a hypertonic solution (500 ml of PBS with 4.5 g of NaCl and 2 × protease inhibitor cocktail) in a 10 ml syringe. Mechanical extrusion, involving 30 rapid back-and-forth movements of the plunger, was then performed. The expelled extracellular fluid was collected, immediately aliquoted, and stored at −20 °C until analysis. Cell-conditioned medium was collected from PBMC cultures after 16 h of stimulation. Arrays were performed according to the manufacturer’s protocol, followed by chemiluminescent detection and densitometric quantification as previously described.\nBALB/c mice subjected to CLP-induced sepsis received P2-1 (0.1 or 1.0 mg/kg) intraperitoneally twice, at 2 h and 20 h post-CLP. At 24 h post-CLP, the animals were sacrificed, and blood was harvested for cytokine and chemokine measurements via cytokine antibody arrays. ^*P < 0.05 vs. the negative control (“- CLP”); ^#P < 0.05 vs. the positive control (“ + CLP”) group, non-parametric Kruskal-Wallis ANOVA test. CLP cecal ligation and puncture, BLC B-lymphocyte chemoattractant, CCL C–C motif chemokine ligand, CXCL C-X-C motif chemokine ligand, IL interleukin, G-CSF granulocyte colony-stimulating factor, KC keratinocyte-derived chemokine, GRO growth-regulated oncogene, MIP macrophage inflammatory protein, PF platelet factor, sTNFR soluble tumor necrosis factor receptor"}, "[2]": {"test_system": "CAIA-induced pain sensitivity in BALB/c mice", "experiment": "Mechanical allodynia, Von Frey filaments, in CAIA mice", "format": "in vivo, mouse", "set-up": "key to CAIA-induced pain sensitivity (Von Frey score) / CAIA-induced pain response (Vor Frey score): 50% paw withdrawal threshold, force in g", "details": "for CAIA-induced pain response (Vor Frey score): female, effect of mAb2, P2-1", "method": "Mechanical allodynia was assessed using Von Frey filaments (Stoelting Co., Wood Dale, IL, USA) applied to the plantar surface of the hind paws as previously described. The mice (n = 6–10) were habituated to individual transparent enclosures on an elevated wire mesh platform. Calibrated Von Frey filaments (0.008–2.000 g) were applied for 2–3 s or until a withdrawal response occurred. The “up-down” method determines the 50% paw withdrawal threshold, defined as the force required to elicit a withdrawal response in 50% of applications."}, "[3]": {"test_system": "Differentiated human macrophages", "experiment": "HMGB1-induced macrophage death, LDH release", "format": "cell-based", "set-up": "key: % of maximal LDH release (2% Triton X-100)", "details": "16 h, percentage of maximal release (2% Triton X-100) per method, individual replicates", "method": "Human macrophage differentiation and treatment\nHuman PBMCs were differentiated into macrophages by culturing in human macrophage colony-stimulating factor (M-CSF, 20 ng/ml) for 5 – 6 d. Differentiated macrophages were maintained in Dulbecco’s modified Eagle’s medium supplemented with 1% penicillin/streptomycin and 10% human serum. Upon reaching 70 – 80% conflu ence, adh erent cells were wash ed and switched to Opti-MEM I before stimulation with recombinant HMGB1 (0.5 µg/ml) with or without P2- 1 (5.0 or 10 µg/ml) for 16 […]\nCell viability was assessed via the tryp an blue excl usion and lactat e dehyd ro genase (LDH) release method as previously described . For trypan blue exclusion, random phase-contr ast images were captur ed , and the percentage of nonviable, trypan blue-stained cells was calculated. LDH release in the culture medium was quantified with an LDH Ass ay Kit (Cat. #L7572, Pointe Scientific Inc., Canton, MI, USA) according to the manufacturer ’s instructions. Optical density was measured at 340 nm, and LDH content was expressed as a per centag e of maximal release in the presence of 2% Triton X-100. The experiments were performed 5 – 7 times ( n= 5 –7 biological replicates). […]"}, "Water solubility": {"experiment": "Water solubility", "format": "physicochemical", "details": "qualitative, text in Fig. 1d"}, "[4]": {"details": "CLP + P2-1 0.1 mg/kg, 0.1 mg/kg"}},
  "note": "Values joined by “and” are separate entries in the source; they are usually repeats but may differ in a detail not shown here. Equal values may be shown once. Where a SMILES comes first, the peptide text is derived from it.",
  "data": [
    {"smiles": "CCCC[C@H](NC(=O)[C@H](Cc1c[nH]cn1)NC(=O)[C@@H](NC(=O)[C@H](CCCCN)NC(=O)[C@@H](N)[C@@H](C)O)C(C)C)C(=O)N[C@@H](CCCCN)C(=O)N[C@@H](CO)C(=O)N[C@@H](Cc1ccccc1)C(=O)N[C@@H](CC(C)C)C(=O)N[C@@H](C)C(=O)N[C@@H](Cc1ccccc1)C(=O)N[C@@H](CCC(N)=O)C(=O)N[C@H](C(=O)N[C@@H](CCCCN)C(=O)N[C@H](C(=O)O)[C@@H](C)O)[C@@H](C)O", "note": "[P2-1] (HELM PEPTIDE1{T.K.V.H.[Nle].K.S.F.L.A.F.Q.T.K.T}$$$$V2.0; N-terminus and C-terminus assumed)", "values": [
      {"measurement": "BLC", "setting": "[1]; CLP + P2-1 0.1 mg/kg i.p. 2 h and 20 h post-CLP, 0.1 mg/kg", "result": "257.4 and 202.1 and 204.2 and 224.3"},
      {"measurement": "G-CSF", "setting": "[1]; [4]", "result": "161.4 and 173.4 and 290.4 and 305.7"},
      {"measurement": "GM-CSF", "setting": "[1]; [4]", "result": "23.2 and 56 and 52.8 and 13.6"},
      {"measurement": "IL-6", "setting": "[1]; [4]", "result": "59.36 and 56.19 and 57.95 and 55.32"},
      {"measurement": "KC", "setting": "[1]; [4]", "result": "128.7 and 116.3 and 31.9 and 105.9"},
      {"measurement": "MCP-1", "setting": "[1]; [4]", "result": "25.4 and 25.6 and 31.2 and 21.8"},
      {"measurement": "MIP-1 gama", "setting": "[1]; [4]", "result": "280.3 and 263.7 and 278.8 and 275.6"},
      {"measurement": "MIP-2", "setting": "[1]; [4]", "result": "203.2 and 193.1 and 174.2 and 159.2"},
      {"measurement": "PF-4", "setting": "[1]; [4]", "result": "302.3 and 268.3 and 285.4 and 298.4"},
      {"measurement": "sTNF-RI", "setting": "[1]; [4]", "result": "143.4 and 116.1 and 179.9 and 149.3"},
      {"measurement": "BLC", "setting": "[1]; CLP + P2-1 1.0 mg/kg i.p. 2 h and 20 h post-CLP, 1 mg/kg", "result": "42.8 and 33.1 and 30.9 and 35.4"},
      {"measurement": "G-CSF", "setting": "[1]; CLP + P2-1 1.0 mg/kg, 1 mg/kg", "result": "111.9 and 128.7 and 120.4 and 100.4"},
      {"measurement": "GM-CSF", "setting": "[1]; CLP + P2-1 1.0 mg/kg, 1 mg/kg", "result": "0.79 and 1.5 and 1.2 and 3.4"},
      {"measurement": "IL-6", "setting": "[1]; CLP + P2-1 1.0 mg/kg, 1 mg/kg", "result": "16.8 and 16.2 and 14.3 and 20.4"},
      {"measurement": "KC", "setting": "[1]; CLP + P2-1 1.0 mg/kg, 1 mg/kg", "result": "151.9 and 155 and 10.5 and 15.5"},
      {"measurement": "MCP-1", "setting": "[1]; CLP + P2-1 1.0 mg/kg, 1 mg/kg", "result": "6.8 and 7.9 and 7.4 and 5.2"},
      {"measurement": "MIP-1 gama", "setting": "[1]; CLP + P2-1 1.0 mg/kg, 1 mg/kg", "result": "128.6 and 137.5 and 54.5 and 68.8"},
      {"measurement": "MIP-2", "setting": "[1]; CLP + P2-1 1.0 mg/kg, 1 mg/kg", "result": "172.1 and 177.3 and 14.9 and 12.4"},
      {"measurement": "PF-4", "setting": "[1]; CLP + P2-1 1.0 mg/kg, 1 mg/kg", "result": "109.2 and 118.3 and 114.4 and 64.9"},
      {"measurement": "sTNF-RI", "setting": "[1]; CLP + P2-1 1.0 mg/kg, 1 mg/kg", "result": "21.5 and 32.7 and 198.2 and 143.4"},
      {"measurement": "sepsis-induced systemic cytokines/chemokines, in words", "setting": "[1]; P2-1 i.p. at 2 h and 20 h post-CLP, blood at 24 h, BLC, G-CSF, IL-6, KC, MIP-1γ, MIP-2, PF-4, sTNFRI", "result": "significantly reduced sepsis-induced systemic accumulation"},
      {"measurement": "CAIA-induced pain sensitivity (Von Frey score)", "setting": "[2]; CAIA + P2-1 (Day 10), individual values, P = 0.04443 vs. CAIA + Vehicle", "result": "0.14 and 0.17 and 1.23 and 0.05 and 0.75 and 0.26 and 0.09 and 0.57 and 0.18 and 0.16 and 0.44 and 0.78"},
      {"measurement": "pain sensitivity, in words", "setting": "[2]; P2-1 prophylactic", "result": "significantly reduced CAIA-induced pain sensitivity through partial restoration of mechanical withdrawal thresholds"},
      {"measurement": "pain sensitivity, in words", "setting": "[2]; P2-1 therapeutic, Von Frey", "result": "significantly reduced CAIA-induced pain sensitivity by partially restoring withdrawal thresholds to mechanical stimuli"},
      {"measurement": "CAIA-induced pain response (Vor Frey score)", "setting": "[2]; Day 6, individual values", "result": "0.37 and 0.11 and 0.21 and 0.16 and 1.19"},
      {"measurement": "CAIA-induced pain response (Vor Frey score)", "setting": "[2]; Day 10, individual values, P = 0.04443 vs. CAIA + Vehicle", "result": "0.57 and 0.31 and 0.96 and 0.32 and 0.44"},
      {"measurement": "LDH release", "setting": "[3]; HMGB1 0.5 µg/ml + P2-1 5.0 μg/ml", "result": "2.7008 and 6.752 and 2.4476 and 4.642 and 0.844 and 5.6548"},
      {"measurement": "LDH release", "setting": "[3]; HMGB1 0.5 µg/ml + P2-1 10.0 μg/ml", "result": "1.0128 and 2.532 and 6.752 and 3.376 and 5.4016 and 2.6164 and 1.1816"},
      {"measurement": "Water solubility", "setting": "Water solubility", "result": "Good water solubility"}
    ]}
  ]
}
